# Earlier results in US20180200208A1, “COMPOSITIONS FOR IMPROVING OR MAINTAINING MYOCARDIAL FUNCTION” (RepoCeuticals ApS, priority 2015, published 2018).
# Columns and labels:
# [1] = target: recombinant MT1 receptor (Homo sapiens, UniProt P48039); settings: relative to melatonin
# [2] = target: T1, recombinant MT2 receptor (Homo sapiens, UniProt P49286); settings: relative to melatonin
# T1 sequence (P49286 1-362): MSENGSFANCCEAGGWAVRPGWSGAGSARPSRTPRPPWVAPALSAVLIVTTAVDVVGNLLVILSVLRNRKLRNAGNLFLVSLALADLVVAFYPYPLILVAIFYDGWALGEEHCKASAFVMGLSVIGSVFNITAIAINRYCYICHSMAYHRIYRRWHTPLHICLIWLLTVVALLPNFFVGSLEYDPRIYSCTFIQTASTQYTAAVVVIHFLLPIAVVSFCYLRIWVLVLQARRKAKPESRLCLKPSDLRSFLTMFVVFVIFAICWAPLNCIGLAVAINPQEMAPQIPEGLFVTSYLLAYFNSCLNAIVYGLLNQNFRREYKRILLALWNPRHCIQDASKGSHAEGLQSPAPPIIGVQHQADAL
# [3] = at 2-8° C.
# [4] = tested on: patients with primary sleep disorders; settings: oral doses of up to 5 mg
# recombinant MT1 receptor, sequence (P48039 whole entry): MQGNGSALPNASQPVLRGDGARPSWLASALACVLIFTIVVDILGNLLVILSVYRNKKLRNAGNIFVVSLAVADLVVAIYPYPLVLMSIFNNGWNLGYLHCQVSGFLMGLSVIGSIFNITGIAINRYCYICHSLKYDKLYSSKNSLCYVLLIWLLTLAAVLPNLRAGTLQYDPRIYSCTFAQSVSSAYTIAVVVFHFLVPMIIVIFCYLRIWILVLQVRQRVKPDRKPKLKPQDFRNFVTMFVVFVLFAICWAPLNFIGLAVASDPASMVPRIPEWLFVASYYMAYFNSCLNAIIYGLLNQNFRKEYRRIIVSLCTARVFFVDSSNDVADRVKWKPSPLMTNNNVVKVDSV
smiles,measurement,setting,value
"COc1cc2c(CCNC(C)=O)c[nH]c2cc1O [6-OHM, 6-hydroxymelatonin]",affinity for recombinant MT1 receptor as % of that of melatonin,[1],20%
same,affinity for recombinant MT2 receptor as % of that of melatonin,[2],13%
"COc1ccc(NC=O)c(C(=O)CCNC(C)=O)c1 [AFMK, N^1-acetyl-N^2-formyl-5-methoxykynuramine]",solubility in DMSO,,soluble in DMSO
same,solubility in water,,insoluble in water
same,long-term stability,[3],good long-term stability
COC1=C(OC)C(=O)C(C/C=C(\C)CC/C=C(\C)CC/C=C(\C)CC/C=C(\C)CC/C=C(\C)CC/C=C(\C)CC/C=C(\C)CC/C=C(\C)CC/C=C(\C)CCC=C(C)C)=C(C)C1=O [Coenzyme Q10],"solubility in ethanol, dimethyl sulfoxide and various oils",,can be dissolved
same,solubility in water,,almost water-insoluble
"COc1ccc2[nH]cc(CCNC(C)=O)c2c1 [Melatonin, N-acetyl-5-methoxytryptamine]",increase of sleep duration (average),[4],7 to 8 min
same,reduction of sleep latency (average),[4],7 to 8 min
same,solubility in DMSO,,soluble in DMSO
same,solubility in water,,insoluble in water
CC(=O)NCCc1c[nH]c2ccc(O)cc12 [N-acetylserotonin],affinity for recombinant MT1 receptor as % of that of melatonin,[1],0.14%
same,affinity for recombinant MT2 receptor as % of that of melatonin,[2],0.22%
"O=C1C[C@@H](c2ccc(O)cc2)Oc2cc(O)cc(O)c21 [Naringenin, naringenin]","solubility in ethanol, dimethyl sulfoxide and various oils",,readily soluble
same,solubility in water,,almost insoluble in water
"Oc1ccc(C=Cc2cc(O)cc(O)c2)cc1 [Resveratrol, resveratrol]","solubility in ethanol, dimethyl sulfoxide and various oils",,readily soluble
same,solubility in water,,almost insoluble in water
